# According to ChEMBL document CHEMBL1132473 (J Med Chem, 1999):
# pKi: −log10 of the molar value.
# Target: 4-aminobutyrate aminotransferase, mitochondrial (Sus scrofa, UniProt P80147)
# Experiment: Compound was tested for the inhibition of Gamma-amino-N-butyrate transaminase (GABA-AT)
# 4-aminobutyrate aminotransferase, mitochondrial, sequence (P80147 whole entry): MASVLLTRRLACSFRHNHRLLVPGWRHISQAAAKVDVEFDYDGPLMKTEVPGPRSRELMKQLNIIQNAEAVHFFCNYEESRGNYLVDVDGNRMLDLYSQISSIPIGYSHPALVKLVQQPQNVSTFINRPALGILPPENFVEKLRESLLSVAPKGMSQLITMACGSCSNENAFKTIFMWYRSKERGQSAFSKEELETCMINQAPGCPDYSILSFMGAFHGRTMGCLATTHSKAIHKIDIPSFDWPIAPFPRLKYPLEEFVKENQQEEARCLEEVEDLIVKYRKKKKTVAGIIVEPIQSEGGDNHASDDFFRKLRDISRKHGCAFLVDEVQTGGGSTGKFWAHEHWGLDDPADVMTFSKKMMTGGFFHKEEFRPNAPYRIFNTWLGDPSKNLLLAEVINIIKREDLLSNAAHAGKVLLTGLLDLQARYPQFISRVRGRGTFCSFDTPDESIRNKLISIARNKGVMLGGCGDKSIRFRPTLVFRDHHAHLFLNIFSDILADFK
row,Compound,pKi
1,N[C@@H]1CC=C(C(=O)O)C1,2.92
2,N[C@@H]1C=C[C@@H](C(=O)O)C1,1.42
3,N[C@H]1C=C[C@@H](C(=O)O)C1,2.57
4,N[C@@H]1C=C[C@H](C(=O)O)C1,4.28
5,N[C@H]1CC=C(C(=O)O)C1,1.14
6,NC1C=CC(C(=O)O)C1 (racemic),3.22
